Assay results reported in patent publication US6544166B1, “Treatment of human infertility” (priority 1999, dated 2003).
Marks after values point to notes of the source that are not given here.

Columns and labels:
mouse oocytes [1] = conditions: 24 hours meiotic arrest with hypoxanthine, then 16-30 hour culture in inhibitor-free medium; cited from earlier work
mouse oocytes [2] = assay: In vitro fertilization of mouse oocytes after in vitro maturation with or without Hx arrest and FF-MAS induction (Example 4); assay type: cell-based, mice (C57Bl/6J×DBA/2J F1-hybrids)
Protocol: Aim: to optimize the culture conditions for mammalian oocytes by arresting the spontaneous maturation for 4 hours before initiating oocyte maturation by the means of adding a adequate concentration of FF-MAS.
Óocytes were obtained from immature (21-24 day old) female mice (C57Bl/6J×DBA/2J F1-hybrids, M&B, Denmark) weighing 13-16 grams, which were kept under controlled lighting and temperature. […] The ovaries were dissected out and the oocytes were isolated in Hx-medium (see below) under a stereomicroscope by manual rupture of the follicles using a pair of 27 gauge needles. Spherical oocytes displaying an intact germinal vesicle (GV) were selected and placed in α-minimum essential medium (α-MEM without ribonucleosides, Gibco BRL, Cat. No. 22561) supplemented with 3 mM hypoxanthine (Sigma Cat. No. H-9377), 8 mg/ml Human Serum Albumin (HSA, State Serum Institute, Denmark), 0.23 mM pyruvate (Sigma, Cat. No. S-8636), 2 mM glutamine (Flow Cat. No. 16-801), 100 IU/ml penicillin and 100 μg/ml streptomycin (Flow, Cat. No. 16-700). This medium was designated Hx-medium. The exact same medium without Hx was designated Hx-free medium
Thus oocytes were cultured in 4-well multidishes (Nunclon, Denmark) in which each well contained 0.4 ml of Hx-medium or medium without Hx (to allow for spontaneous maturation) and 35-45 oocytes.
Different treatment groups:
1. Controls: No inhibition, No FF-MAS
2. MAS: No inhibition and 10 μM FF-MAS
3. Inhibition and then spontaneous maturation: Hx-medium for 4 hours then transfer to Hx-free medium
4. Inhibition and FF-MAS induction: Hx-medium for 4 hours and addition of FF-MAS to Hx-medium
5. Inhibition and removal of inhibition and then subsequently FF-MAS induction: Hx-medium for 4 hours, rinse, transfer to Hx-free medium and addition of FF-MAS.
In vitro fertilization following 16-20 hours maturation.
Endpoints: Fertilization rate and in vitro embryo development.

[3] = system: cumulus enclosed human oocytes; assay: Maturation of cumulus enclosed human oocytes with FF-MAS; assay type: cell-based
Description: Although the use of FF-MAS improves the rate of fertility compared to the currently applied methods, it is still desirable to increase this rate even further.

[4] = Treatment No 3: Hx-medium (3 mM hypoxanthine) for 4 hours then transfer to Hx-free medium, no FF-MAS
[5] = Treatment No 4: Hx-medium for 4 hours and addition of FF-MAS to Hx-medium
[6] = Treatment No 5: Hx-medium for 4 hours, rinse, transfer to Hx-free medium and addition of FF-MAS

Structure (SMILES) | Arrested oocytes that resumed maturation (mouse oocytes [1]) | Embryo development Rate (8-cell rate at 72 hours) (mouse oocytes [2]; [4]) | Fertilization Rate (mouse oocytes [2]; [4]) | Oocyte quality evaluated as fertilization rate and embryonic developmental capacity, compared with the other treatments (mouse oocytes [2]; 4th treatment modality: inhibition (Hx-medium) and FF-MAS induction) | Embryo development Rate (8-cell rate at 72 hours) (mouse oocytes [2]; Treatment No 2: no inhibition and 10 μM FF-MAS) | Fertilization Rate (mouse oocytes [2]; Treatment No 2: no inhibition and 10 μM FF-MAS, IVF following 16-20 hours maturation) | Embryo development Rate (8-cell rate at 72 hours) (mouse oocytes [2]; [5]) | Fertilization Rate (mouse oocytes [2]; [5]) | Embryo development Rate (8-cell rate at 72 hours) (mouse oocytes [2]; [6]) | Fertilization Rate (mouse oocytes [2]; [6]) | Effect on nuclear and cytoplasmic maturation [3]
O=c1[nH]cnc2nc[nH]c12 [hypoxanthine, Hypoxanthine] | ~100% | <10% | <50% | – | – | – | – | – | – | – | –
CC(C)=CCC[C@@H](C)[C@H]1CC=C2C3=C(CC[C@@]21C)[C@@]1(C)CC[C@H](O)C(C)(C)[C@@H]1CC3 [FF-MAS, 4,4-dimethyl-5α-cholesta-8,14,24-triene-3β-ol] | – | – | – | significantly superior to the other treatment alternatives | <10% | <50% | 30%* | 75%* | <10% | <50% | improves not only nuclear but cytoplasmic maturation
